This is an account of results in US20110105472A1, “Diaminopyrimidines as crop protection agents” (Bayer CropScience AG, priority 2008, published 2011).

Marks after values point to notes of the source that are not given here.

In data set [1] the test system is Capsella bursa-pastoris (shepherd's purse). Description: Herbicidal post-emergence action (PO), CAPBP. Format: in vivo. The note with it: dose 1000 g/ha, rated visually after about 2 weeks. As to the method:
(§1) 2. Herbicidal Post-Emergence Action (═PO)
(§2) Seeds of monocotyledonous and dicotyledonous harmful plants are placed in sandy loam, covered with soil and cultivated in a greenhouse under good growth conditions. About 2 weeks after sowing, the test plants are treated at the one-leaf stage. To this end, the compounds according to the invention, formulated as emulsion concentrates (EC), as an aqueous emulsion with a water application rate of 800 l/ha (converted), are sprayed onto the green parts of the plants. After the test plants have been kept in the greenhouse under optimum growth conditions for about 2 weeks, the effect of the preparations is rated visually in comparison to untreated controls (herbicidal effect in percent (%): 100% effect=the plants have died, 0% effect=like control plants). CAPBP=Capsella bursa-pastoris (shepherd's purse), STEME=Stellaria media (common chickweed), ABUTH=Abutilon theophrasti (velvetleaf), AMARE=Amaranthus retroflexus (redroot pigweed)

Data set [2] deals with Stellaria media (common chickweed). In words: Herbicidal post-emergence action (PO), STEME. It counts as in vivo. The note with it: dose 1000 g/ha, rated visually after about 2 weeks. The protocol: as §1, §2
Data set [3] in a line: logP by LC-MS, method [b], acidic range pH 2.7. Format: physicochemical. The note with it: pH 2.7.
Data set [4] relates to Abutilon theophrasti (velvetleaf). In words: Herbicidal post-emergence action (PO), ABUTH. Format: in vivo. The note with it: dose 1000 g/ha, rated visually after about 2 weeks. The protocol:
as §1, §2

Data set [5] has as its system Amaranthus retroflexus (redroot pigweed). In words: Herbicidal post-emergence action (PO), AMARE. Particulars: dose 1000 g/ha, rated visually after about 2 weeks. Format: in vivo. As to the method:
as §1, §2

Data set [6] can be described thus: logP by HPLC on reversed-phase columns (C 18), method [a], acidic range pH 2.3. Format: physicochemical. Particulars: pH 2.3.
Another data set in a line: physchem. It counts as physicochemical. Particulars: pH 7.8.
For data set [7], the system named is Capsella bursa-pastoris (shepherd's purse). Description: Herbicidal pre-emergence action (PE), CAPBP. Format: in vivo. Particulars: dose 1000 g/ha, visual assessment after 2 weeks. From the text: (§3) 1. Herbicidal Pre-Emergence Action (═Pe)
(§4) Seeds of monocotyledonous and dicotyledonous harmful plants are placed in sandy loam and covered with soil. The compounds according to the invention, formulated as emulsion concentrates (EC), are then, as an aqueous emulsion with a water application rate of 800 l/ha (converted), applied to the surface of the covering soil.
(§5) After the treatment, the pots are placed in a greenhouse and kept under good growth conditions for the test plants. The visual assessment of the damage on the test plants is carried out after a trial period of 2 weeks by comparison with untreated controls (herbicidal effect in percent (%): 100% effect=the plants have died, 0% effect=like control plants). CAPBP=Capsella bursa-pastoris (shepherd's purse), STEME=Stellaria media (common chickweed)

Data set [8] relates to Stellaria media (common chickweed). In words: Herbicidal pre-emergence action (PE), STEME. Format: in vivo. The note with it: dose 1000 g/ha, visual assessment after 2 weeks.
Excerpt: as §3, §4, §5

In a further data set the test system is Meloidogyne incognita. In words: Meloidogyne test (spray treatment). It counts as in vivo. Particulars: concentration 20 ppm; lettuce roots. The protocol:
Containers are filled with sand, active compound solution, Meloidogyne incognita egg/larvae suspension and lettuce seeds. The lettuce seeds germinate and the plants develop. On the roots, galls are formed. After the desired period of time, the nematicidal activity is determined by the formation of galls in %. 100% means that no galls were found; 0% means that the number of galls on the treated plants corresponds to that of the untreated control.

The subject of data set [9] is Spodoptera frugiperda larvae. Description: Spodoptera frugiperda test (SPDFR spray application). Particulars: application rate 500 g/ha; maize plants. Format: in vivo. The protocol: Spodoptera frugiperda Test (SPDFR Spray Application)
Solvents: 78.0 parts by weight of acetone • • 1.5 parts by weight of dimethylformamide Emulsifier: 0.6 part by weight of alkylaryl polyglycol ether
Maize plants (Zea mays) are watered with an active compound preparation of the desired concentration and infected with Spodoptera frugiperda larvae.
After the desired period of time, the kill in % is determined. 100% means that all larvae have been killed; 0% means that none of the larvae have been killed.

As to `O=c1[nH]c2ccc(Nc3ncc(Br)c(NC4CCC4)n3)cc2o1` [Compound 5], in data set [1], the “herbicidal effect CAPBP” value stood at 70%. Also, the “herbicidal effect STEME” value in data set [2] was 70%. Moreover, in data set [3], the log p is 1.59[b].

Regarding `COc1cc(Nc2ncc(Br)c(NC3CCC3)n2)cc(OC)c1OC` [Compound 38], the “herbicidal effect ABUTH” value in data set [4] amounted to 70%. The “herbicidal effect AMARE” value in data set [5] is given as 90%. The log p in [3] is 2.04[b].

For the compound `CSc1cccc(Nc2ncc(Br)c(NC3CCC3)n2)c1` [Compound 44], the “herbicidal effect CAPBP” value in [1] stood at 80%. Also, the “herbicidal effect STEME” value in data set [2] worked out at 70%. In data set [3], the log p is 2.92[b].

As to `O=C1CCCN1c1cccc(Nc2ncc(Br)c(NC3CCC3)n2)c1` [Compound 45], in [5], the “herbicidal effect AMARE” value amounted to 70%. Further, in data set [1], the “herbicidal effect CAPBP” value came out at 70%. Also, the “herbicidal effect STEME” value in [2] is listed as 80%. Besides, the log p in data set [3] was 1.84[b].

As for `Fc1ccc(Nc2ncc(Cl)c(NC3CCC3)n2)cc1` [Compound 47], the log p in data set [6] was 2.15[a];; in the data set “physchem”, 3.7[c].

Turning to `O=C1CCCN1c1cccc(Nc2ncc(Cl)c(NC3CCC3)n2)c1` [Compound 48], the log p was 1.71[a]; in data set [6] and 2.74[c] in “physchem”. In data set [5], the “herbicidal effect AMARE” value is on record as 70%. In addition, in [1], the “herbicidal effect CAPBP” value is on record as 70%.

Take `O=C1COCCN1c1ccc(Nc2ncc(Br)c(NC3CCC3)n2)cc1` [Compound 50]: the “herbicidal effect AMARE” value in [5] is on record as 70%. Also, the “herbicidal effect STEME” value in [2] came out at 80%. In addition, the log p in data set [3] was 1.53[b].

For `CC1CC(C)CN(c2cccc(Nc3ncc(Cl)c(NC4CCC4)n3)c2)C1` (stereo not drawn) [Compound 51], the figures for the log p (in data set [6]; in “physchem”) were 2.94[a]; and 5.82[c], respectively.

Regarding `FC(F)(F)c1cnc(Nc2ccccc2)nc1NC1CCC1` [Compound 54, N^4-Cyclobutyl-N^2-phenyl-5-(trifluoromethyl)pyrimidine-2,4-diamine], the chromatographic logP amounted to 3.33 in data set [6] and 3.96 in the data set “physchem”.

For the compound `O=C1CCCN1c1cccc(Nc2ncc(C(F)(F)F)c(NC3CCC3)n2)c1` [Compound 55], the log p is 2.64[a]; in data set [6] and 3.09[c] in the data set “physchem”.

Turning to `O=C1CCCN1c1ccc(Nc2ncc(C(F)(F)F)c(NC3CCC3)n2)cc1` [Compound 56], the log p in data set [6] was 2.51[a];; in “physchem”, 3.01[c].

Turning to `CSc1cccc(Nc2ncc(C(F)(F)F)c(NC3CCC3)n2)c1` [Compound 57], the values for the log p (in data set [6]; in the data set “physchem”) were 4.05[a]; and 4.36[c], respectively.

Regarding `Fc1ccc(Nc2ncc(C(F)(F)F)c(NC3CCC3)n2)cc1` [Compound 58], the log p in data set [6] was 3.5[a];; in “physchem”, 4[c].

As to `CN1CCN(c2cccc(Nc3ncc(Br)c(NC4CCC4)n3)c2)C1=O` [Compound 59], the “herbicidal effect ABUTH” value in data set [4] was 80%. Moreover, the “herbicidal effect CAPBP” value in data set [1] is 70%. Besides, the “herbicidal effect STEME” value in data set [2] worked out at 80%. The log p in data set [3] is 1.79[b].

Regarding `CS(=O)(=O)Nc1cccc(Nc2ncc(Br)c(NC3CCC3)n2)c1` [Compound 87], in [5], the “herbicidal effect AMARE” value is 80%. Moreover, the “herbicidal effect STEME” value in data set [2] worked out at 70%. The log p in data set [3] is 1.73[b].

`CS(=O)(=O)Cc1cccc(Nc2ncc(Br)c(NC3CCC3)n2)c1` [Compound 88]: the “herbicidal effect CAPBP” value in data set [7] worked out at 90%; in data set [1] it was 70%. Moreover, the “herbicidal effect STEME” value in data set [8] and in data set [2] was 80% in each case. Further, the log p in data set [3] is 1.66[b].

In the case of `CC(=O)Nc1cccc(Nc2ncc(Br)c(NC3CCC3)n2)c1` [Compound 96], the “herbicidal effect AMARE” value in data set [5] is listed as 70%. Also, the “herbicidal effect CAPBP” value in data set [1] came to 90%. Also, in [2], the “herbicidal effect STEME” value was determined as 70%. In data set [3], the log p was 1.54[b].

Take `CN(C)C(=O)c1ccc(Nc2ncc(Br)c(NC3CCC3)n2)cc1` [Compound 100]: the “herbicidal effect AMARE” value in [5] amounted to 70%. Besides, in data set [1], the “herbicidal effect CAPBP” value amounted to 70%. In data set [2], the “herbicidal effect STEME” value was 70%. Also, the log p in [3] was 1.73[b].

Take `CC(=O)Nc1ccc(Nc2ncc(Cl)c(NC3CCC3)n2)cc1Cl` [Compound 118]: in the data set on Meloidogyne incognita, the “efficacy (nematicidal activity by formation of galls)” value is reported as over 80%. Also, the log p in data set [3] is 1.78[b].

As for `CC(=O)N(C)c1ccc(Nc2ncc(Cl)c(NC3CCC3)n2)cc1` [Compound 120], the “herbicidal effect AMARE” value in data set [5] is recorded as 90%. Moreover, the “herbicidal effect CAPBP” value in [1] is 70%. Also, the log p in data set [3] is 1.64[b].

For `CC(=O)Nc1cccc(Nc2ncc(Cl)c(NC3CCC3)n2)c1` [Compound 123], in data set [5], the “herbicidal effect AMARE” value came to 100%. Moreover, the “herbicidal effect CAPBP” value in data set [1] came out at 80%. Further, in data set [2], the “herbicidal effect STEME” value was 70%. Moreover, in data set [3], the log p was 1.51[b].

Consider `CSc1cccc(Nc2ncc(Cl)c(NC3CCC3)n2)c1` [Compound 128], for which the “herbicidal effect AMARE” value in data set [5] is listed as 90%. The “herbicidal effect CAPBP” value in data set [1] is given as 80%. In data set [2], the “herbicidal effect STEME” value is 90%. In addition, in data set [3], the log p is 2.46[b].

`CSc1ccc(Nc2ncc(Cl)c(NC3CCC3)n2)cc1` [Compound 129]: the “herbicidal effect CAPBP” value in [1] was 70%. Also, the “herbicidal effect STEME” value in [2] is reported as 70%. The log p in data set [3] is 2.33[b].

In the case of `CC(=O)Nc1cc(Nc2ncc(Cl)c(NC3CCC3)n2)ccc1C` [Compound 142], the “herbicidal effect CAPBP” value in data set [7] is recorded as 80%. The “herbicidal effect STEME” value in [8] is listed as 70%. In [4], the “herbicidal effect ABUTH” value amounted to 70%. Also, in data set [5], the “herbicidal effect AMARE” value was 80%. Moreover, the log p in data set [3] was 1.38[b].

`CCOC(=O)Cc1ccc(Nc2ncc(Br)c(NC3CCC3)n2)cc1` [Compound 148]: in [4], the “herbicidal effect ABUTH” value is listed as 70%. Besides, the “herbicidal effect AMARE” value in [5] turned out to be 90%. For the same compound, in data set [1], the “herbicidal effect CAPBP” value came to 80%. The “herbicidal effect STEME” value in data set [2] was 70%. Further, the log p in data set [3] was 2.3[b].

`N#CCC(=O)c1ccc(Nc2ncc(Br)c(NC3CCC3)n2)cc1` [Compound 149]: the “herbicidal effect AMARE” value in data set [5] was found to be 90%. Also, the “herbicidal effect CAPBP” value in data set [1] is given as 90%. In addition, the “herbicidal effect STEME” value in data set [2] is recorded as 70%. Further, the log p in data set [3] is 2.57[b].

As for `CN(C)C(=O)c1cccc(Nc2ncc(Br)c(NC3CCC3)n2)c1` [Compound 155], the “herbicidal effect AMARE” value in [5] is 70%. In data set [1], the “herbicidal effect CAPBP” value is 80%. The “herbicidal effect STEME” value in data set [2] was 80%. Also, the log p in [3] was 1.68[b].

As for `O=C(O)c1ccc(Nc2ncc(Br)c(NC3CCC3)n2)cc1` [Compound 156], the “herbicidal effect CAPBP” value in data set [7] was 70%. Besides, the “herbicidal effect STEME” value in data set [8] stood at 70%. In addition, the log p in [3] was 1.94[b].

As to `O=C1CCCN1c1cc(Nc2ncc(C(F)(F)F)c(NC3CCC3)n2)ccc1F` [Compound 211], the log p in [6] was 2.69[a];; in “physchem”, 2.96[c].

Regarding `CN(C)C(=O)c1ccc(Nc2ncc(C(F)(F)F)c(NC3CCC3)n2)cc1` [Compound 221], the “efficacy (kill in %)” value in data set [9] is recorded as at least 80%. For the same compound, the log p in [3] is 2.48[b].

As for `CS(=O)(=O)c1cccc(Nc2ncc(Cl)c(NC3CCC3)n2)c1` [Compound 263], the log p in the data set “physchem” is 2.63[c].

The term chromatographic logP denotes lipophilicity estimated from chromatographic retention. A low value points to a more hydrophilic compound.
